Measured values as given in patent US20230330254A1 (Regeneron Pharmaceuticals, Inc., priority 2022, published 2023).
*1 amine or outer side, *2 acyl side, *3 side chain or, on linkers, in order; H or OH if unused. Where a SMILES comes first, the peptide text is derived from it. [ ]: non-standard residue; d: D form. The star is where a group is joined. Bip(2'-Et-4'-O(CH2)4NH2) = CCc1cc(OCCCCN[*:3])ccc1-c1ccc(C[C@H](N[*:1])C(=O)[*:2])cc1; Bip(2'-Et,4'-O(CH2)4NH2) = CCc1cc(OCCCCN)ccc1-c1ccc(C[C@H](N)C(=O)O)cc1; Malonyl(2,2-Me2,histaminyl) = CC(C)(C(=O)NCCc1cnc[nH]1)C(=O)*; X7 = O=C(NCCOCCOCCOCCOC(=O)*)OC[C@@H]1[C@@H]2CCC#CCC[C@@H]21; Nva(5-(3,5-Me2Ph)) = Cc1cc(C)cc(CCC[C@H](N)C(=O)O)c1; Ala(1H-tetrazol-5-yl) = N[C@@H](Cc1nnn[nH]1)C(=O)O; αMePhe(2-F) = C[C@](N)(Cc1ccccc1F)C(=O)O; X6 = CC(C)(C(=O)NO)C(=O)*

Tests used:
HEK293/CRE-Luc cells = test: Luciferase reporter assay, HEK293/CRE-Luc cells without GLP1R (Example 17); type: cell-based, human; details: HEK293/CRE-Luc cells without hGLP1R, payloads and linker-payloads; for EC50: read-out: EC50
Source text: (§1) To test the activity of GLP1R agonist payloads, GLP1R agonist linker-payloads (LPs), and anti-GLP1R antibody tethered drug conjugates (ATDCs) of the invention, a cell-based cAMP responsive luciferase reporter assay was developed. To generate the assay cell line, the firefly luciferase gene was placed under the control of a cAMP response element (CRE) located upstream of a minimal promoter and transfected into HEK293 cells and referred to herein as HEK293/CRE-Luc cells.
(§2) Three-fold serial dilutions of free payloads or LPs were prepared in 100% DMSO, transferred to fresh assay media, and added to the cells at a final constant DMSO concentration of 0.2%. The last well in the plate served as a blank control containing only the assay media and 0.2% DMSO (untreated well) and was plotted as a continuation of the 3-fold serial dilution. Four to six hours later, luciferase activity was determined after the addition of One-Glo™ reagent (Promega, Cat #E6130) to each well. Relative light units (RLUs) were measured on an Envision luminometer (PerkinElmer) and EC50 values were determined using a four-parameter logistic equation over a 12-point dose response curve (GraphPad Prism). The signal to noise (S/N) was determined by taking the ratio of the highest RLU on the dose response curve to the RLU in the untreated wells. Data was generated across several experiments (A-E) with M2361 serving as a reference standard in each experiment to calculate the payload relative potency ((M2361 EC50/payload EC50)*100)) and relative S/N ((payload SN/M2361 SN)*100)).

human GLP1R [1] = target: T1, human GLP1R (Homo sapiens, UniProt P43220); test: Luciferase reporter assay, HEK293/CRE-Luc/hGLP1R (Example 17); type: cell-based; set-up: engineered to express full-length human GLP1R, cynomolgus GLP1R; expressed in transfected cells; host or cells: HEK293/CRE-Luc; details: HEK293/CRE-Luc/hGLP1R; for S/N: highest RLU / RLU of untreated wells; for EC50: payloads and linker-payloads, experiments A-E, M2361 repeated in each, read-out: EC50; for Relative Potency (% M2361 EC50) / Relative Signal:Noise (% M2361): relative to M2361 of the same experiment
T1 sequence (P43220 24-463): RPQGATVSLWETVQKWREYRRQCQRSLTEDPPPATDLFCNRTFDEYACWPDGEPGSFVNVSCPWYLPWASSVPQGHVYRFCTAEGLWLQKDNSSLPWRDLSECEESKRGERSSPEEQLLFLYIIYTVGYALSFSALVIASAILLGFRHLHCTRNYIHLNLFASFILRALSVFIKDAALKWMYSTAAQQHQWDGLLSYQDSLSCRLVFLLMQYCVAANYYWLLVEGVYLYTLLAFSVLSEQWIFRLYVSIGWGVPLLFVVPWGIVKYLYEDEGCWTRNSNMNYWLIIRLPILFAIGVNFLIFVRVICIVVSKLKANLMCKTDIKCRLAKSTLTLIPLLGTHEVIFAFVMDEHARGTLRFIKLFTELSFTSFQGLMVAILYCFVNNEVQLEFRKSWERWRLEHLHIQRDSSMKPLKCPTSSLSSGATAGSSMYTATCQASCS
Source text: as §1, §2

human GLP1R [2] = target: T1, human GLP1R; test: Human GLP1R cAMP accumulation assay; type: cell-based; set-up: HEK293 cells over-expressing full length human GLP-1R were utilized; expressed in transfected cells; host or cells: HEK293 (HEK293/hGLP1R); details: HEK293/hGLP1R cells; Table 4; read-out: cAMP EC50
Description: 8.1 Human GLP1R cAMP Accumulation Assay (Cyclic AMP Determination)
The functional activity of the test compounds for agonizing GLP1R were evaluated using a cell-based assay. For the assay, HEK293 cells over-expressing full length human GLP-1R were utilized and the downstream cAMP accumulation was assessed as a measure of human GLP-1R stimulation. […] Diluted compounds were transferred to OptiPlates (100 nL/well) using an Echo liquid handler. HEK293/hGLP1R cells were thawed in 37° C. water-bath, washed 2 times with HBSS and re-suspended in assay buffer (HBSS+5 mM HEPES+500 μM IBMX+0.1% BSA). […] After centrifugation, the assay plate was incubated at 23° C. for 30 min. The reaction was terminated by adding 10 μL of lysis buffer containing D2-cAMP and a cAMP-antibody from the cyclic AMP immunoassay kit (Cisbio, Cat #62AM4PEJ). […] The levels of cAMP per well were calculated using a standard curve generated by GraphPad Prism. Percent activity was calculated according to the formula (% Activity=100%*(cAMP level-LC)/(HC-LC)). EC50 values were fitted from a four-parameter logistic equation over a 10-point response curve (GraphPad Prism).

S/N (human GLP1R [1]) | EC50 (human GLP1R [1]) [nM] | Relative Potency (% M2361 EC50) (human GLP1R [1]) [%] | Relative Signal:Noise (% M2361) (human GLP1R [1]) [%] | EC50 (human GLP1R [2]) [nM] | SMILES | S/N (HEK293/CRE-Luc cells) | EC50 (HEK293/CRE-Luc cells) [nM]
55.3 | 0.00972 | 54.6 | 84.1 | 0.378 | CCc1cc(OCCCCNC(=O)CNC(=O)CNC(=O)CNC(=O)CNC(=O)[C@H](CO)NC(=O)CCC(=O)N2Cc3ccccc3C#Cc3ccccc32)ccc1-c1ccc(C[C@H](NC(=O)[C@H](CC(=O)O)NC(=O)[C@H](CO)NC(=O)[C@@H](NC(=O)[C@](C)(Cc2ccccc2F)NC(=O)[C@@H](NC(=O)CNC(=O)[C@H](Cc2nn[nH]n2)NC(=O)C(C)(C)C(=O)NCCc2cnc[nH]2)[C@@H](C)O)[C@@H](C)O)C(=O)N[C@@H](CCCc2cc(C)cc(C)c2)C(N)=O)cc1 [LP7, DIBAC-suc-SG4-P9] | 1.1 | > 200
62.1 | 0.0467 | 11.4 | 94.4 | 0.458 | CCc1cc(OCCCCNC(=O)CNC(=O)CNC(=O)CNC(=O)CNC(=O)[C@H](CO[C@@H]2O[C@H](CO)[C@@H](O)[C@H](O)[C@H]2O)NC(=O)CCNC(=O)OC[C@@H]2[C@@H]3CCC#CCC[C@@H]32)ccc1-c1ccc(C[C@H](NC(=O)[C@H](CC(=O)O)NC(=O)[C@H](CO)NC(=O)[C@@H](NC(=O)[C@](C)(Cc2ccccc2F)NC(=O)[C@@H](NC(=O)CNC(=O)[C@H](Cc2nn[nH]n2)NC(=O)C(C)(C)C(=O)NCCc2cnc[nH]2)[C@@H](C)O)[C@@H](C)O)C(=O)N[C@@H](CCCc2cc(C)cc(C)c2)C(N)=O)cc1 [LP18, BCN NHC2 H4CO (glucose) SG4-P9] | 1.1 | > 200
73.8 | 0.0174 | 30.5 | 112.2 | 0.078 | CCc1cc(OCCCCn2cc(COCCOCCOCCOCCNC(=O)OC[C@@H]3[C@@H]4CCC#CCC[C@@H]43)nn2)ccc1-c1ccc(C[C@H](NC(=O)[C@H](CC(=O)O)NC(=O)[C@H](CO)NC(=O)[C@@H](NC(=O)[C@](C)(Cc2ccccc2F)NC(=O)[C@@H](NC(=O)CNC(=O)[C@H](Cc2nn[nH]n2)NC(=O)C(C)(C)C(=O)NCCc2cnc[nH]2)[C@@H](C)O)[C@@H](C)O)C(=O)N[C@@H](CCCc2cc(C)cc(C)c2)C(N)=O)cc1 [LP9, BCN-PEG4-triazole-P8] | 1.3 | > 200

More lines, now with the values behind:

SMILES | S/N (human GLP1R [1]) | EC50 (human GLP1R [1]) [nM] | Relative Potency (% M2361 EC50) (human GLP1R [1]) [%] | Relative Signal:Noise (% M2361) (human GLP1R [1]) [%] | EC50 (human GLP1R [2]) [nM] | S/N (HEK293/CRE-Luc cells) | EC50 (HEK293/CRE-Luc cells) [nM]
CCc1cc(OCCCCN)ccc1-c1ccc(C[C@H](NC(=O)[C@H](CC(=O)O)NC(=O)[C@H](CO)NC(=O)[C@@H](NC(=O)[C@](C)(Cc2ccccc2F)NC(=O)[C@@H](NC(=O)CNC(=O)[C@H](Cc2nn[nH]n2)NC(=O)C(C)(C)C(=O)NO)[C@@H](C)O)[C@@H](C)O)C(=O)N[C@@H](CCCc2cc(C)cc(C)c2)C(N)=O)cc1 [P5] (X6-[Ala(1H-tetrazol-5-yl)]GT[αMePhe(2-F)]TSD[Bip(2'-Et,4'-O(CH2)4NH2)][Nva(5-(3,5-Me2Ph))]-NH2) | 50.6 | 0.127 | 4.2 | 76.9 | 0.115 | 1.3 | > 200
CCc1cc(OCCCCNC(=O)OCCOCCOCCOCCNC(=O)OC[C@@H]2[C@@H]3CCC#CCC[C@@H]32)ccc1-c1ccc(C[C@H](NC(=O)[C@H](CC(=O)O)NC(=O)[C@H](CO)NC(=O)[C@@H](NC(=O)[C@](C)(Cc2ccccc2F)NC(=O)[C@@H](NC(=O)CNC(=O)[C@H](Cc2nn[nH]n2)NC(=O)C(C)(C)C(=O)NCCc2cnc[nH]2)[C@@H](C)O)[C@@H](C)O)C(=O)N[C@@H](CCCc2cc(C)cc(C)c2)C(N)=O)cc1 [LP5, BCN-PEG4-carba-mate P9] ({Malonyl(2,2-Me2,histaminyl)}-[Ala(1H-tetrazol-5-yl)]GT[αMePhe(2-F)]TSD[Bip(2'-Et-4'-O(CH2)4NH2)](X7)[Nva(5-(3,5-Me2Ph))]-NH2) | 54.8 | 0.0242 | 21.9 | 83.4 | 0.044 | 1.8 | > 200
CCc1cc(OCCCCN)ccc1-c1ccc(C[C@H](NC(=O)[C@H](CC(=O)O)NC(=O)[C@H](CO)NC(=O)[C@@H](NC(=O)[C@](C)(Cc2ccccc2F)NC(=O)[C@@H](NC(=O)CNC(=O)[C@H](Cc2nn[nH]n2)NC(=O)C(C)(C)C(=O)NCCc2cnc[nH]2)[C@@H](C)O)[C@@H](C)O)C(=O)Nc2ccccc2)cc1 [P22] | 48.9 | 0.44 | 1.2 | 74.4 | 0.603 | 1.5 | > 200
CCc1cc(OCCCCNC(=O)[C@H](CO)NC(=O)CNC(=O)CNC(=O)CNC(=O)CNC(=O)CCC(=O)N2Cc3ccccc3C#Cc3ccccc32)ccc1-c1ccc(C[C@H](NC(=O)[C@H](CC(=O)O)NC(=O)[C@H](CO)NC(=O)[C@@H](NC(=O)[C@](C)(Cc2ccccc2F)NC(=O)[C@@H](NC(=O)CNC(=O)[C@H](Cc2nn[nH]n2)NC(=O)C(C)(C)C(=O)NCCc2cnc[nH]2)[C@@H](C)O)[C@@H](C)O)C(=O)N[C@@H](CCCc2cc(C)cc(C)c2)C(=O)Nc2ccccc2)cc1 [LP15, DIBAC- suc-G4S- P23] | 48.1 | 0.0704 | 7.5 | 73.2 | 0.649 | 1.5 | > 200
CCc1cc(OCCCCN)ccc1-c1ccc(C[C@H](NC(=O)[C@H](CC(=O)O)NC(=O)[C@H](CO)NC(=O)[C@@H](NC(=O)[C@](C)(Cc2ccccc2F)NC(=O)[C@@H](NC(=O)CNC(=O)[C@H](Cc2nn[nH]n2)NC(=O)[C@H](C)NC(=O)[C@@H](N)Cc2ccc(O)cc2)[C@@H](C)O)[C@@H](C)O)C(=O)N[C@@H](CCCc2cc(C)cc(C)c2)C(N)=O)cc1 [P18] | 68.2 | 0.0613 | 8.7 | 103.6 | 0.37 | 1.4 | > 200
CCc1cc(OCCCCN)ccc1-c1ccc(C[C@H](NC(=O)[C@H](CC(=O)O)NC(=O)[C@H](CO)NC(=O)[C@@H](NC(=O)[C@](C)(Cc2ccccc2F)NC(=O)[C@@H](NC(=O)CNC(=O)[C@H](Cc2nn[nH]n2)NC(=O)[C@@H](N)CO)[C@@H](C)O)[C@@H](C)O)C(=O)N[C@@H](CCCc2cc(C)cc(C)c2)C(N)=O)cc1 [P7] (H-S[Ala(1H-tetrazol-5-yl)]GT[αMePhe(2-F)]TSD[Bip(2'-Et,4'-O(CH2)4NH2)][Nva(5-(3,5-Me2Ph))]-NH2) | 48.4 | 1.89 | 0.3 | 73.6 | 2.06 | 1.0 | > 200
CCc1cc(OCCCCNC(=O)[C@H](CO)NC(=O)CNC(=O)CNC(=O)CNC(=O)CNC(=O)CCC(=O)N2Cc3ccccc3C#Cc3ccccc32)ccc1-c1ccc(C[C@H](NC(=O)[C@H](CC(=O)O)NC(=O)[C@H](CO)NC(=O)[C@@H](NC(=O)[C@](C)(Cc2ccccc2F)NC(=O)[C@@H](NC(=O)CNC(=O)[C@H](Cc2nn[nH]n2)NC(=O)C(C)(C)C(=O)NCCc2cnc[nH]2)[C@@H](C)O)[C@@H](C)O)C(=O)N[C@@H](CCCc2cc(C)cc(C)c2)C(N)=O)cc1 [LP6, DIBAC- suc-G4S- P9] | 65.7 | 0.0251 | 21.2 | 99.9 | 0.436 | 1.4 | > 200
